Data reported in ChEMBL document CHEMBL1201862, “PubChem BioAssay data set” (2004).
“And” between values parts separate entries of the source, which are not always exact repeats. Equal values may be shown once.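 Protocol summary: plate cells (96-well), add compound at 5 concentrations, incubate 48 h, interpolate endpoints linearly. GI50 is the concentration that inhibits growth by half.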 The source made the active and inactive calls. Rule as the data show it: active = GI50 up to about 1.1 µM and inactive = higher.

Key:
Assay in all cases: NCI anticancer screen, dose series, 48 h
786-0 = tested on: 786-0
A498 = tested on: A498
ACHN = tested on: ACHN
CAKI-1 = tested on: CAKI-1
HCT-15 = tested on: HCT-15
HL-60 = tested on: HL-60
Hs-578T = tested on: Hs-578T
LOX IMVI = tested on: LOX IMVI
MDA-MB-231 = tested on: MDA-MB-231
MDA-N = tested on: MDA-N
Malme-3M = tested on: Malme-3M
NCI-H226 = tested on: NCI-H226
NCI/ADR-RES = tested on: NCI/ADR-RES
RPMI-8226 = tested on: RPMI-8226
SK-MEL-5 = tested on: SK-MEL-5
T47D = tested on: T47D
U-251 = tested on: U-251
NCI-H460 = tested on: NCI-H460
SNB-75 = tested on: SNB-75
SR = tested on: SR

SMILES	GI50 (786-0)	GI50 (A498)	GI50 (ACHN)	GI50 (CAKI-1)	GI50 (HCT-15)	GI50 (HL-60)	GI50 (Hs-578T)	GI50 (LOX IMVI)	GI50 (MDA-MB-231)	GI50 (MDA-N)	GI50 (Malme-3M)	GI50 (NCI-H226)	GI50 (NCI/ADR-RES)	GI50 (RPMI-8226)	GI50 (SK-MEL-5)	GI50 (T47D)	GI50 (U-251)	GI50 (NCI-H460)	GI50 (SNB-75)	GI50 (SR)
O=C1CCC(=O)N1CNc1ccc2c(c1)S(=O)(=O)c1ccccc1O2	> 100 µM (inactive)	> 100 µM (inactive)	> 100 µM (inactive)	> 100 µM (inactive)	> 100 µM	> 100 µM (inactive)	> 100 µM (inactive)	> 100 µM (inactive)	> 100 µM (inactive)	> 100 µM (inactive)	> 100 µM (inactive)	> 100 µM (inactive)	> 100 µM (inactive)	54.7 µM (inactive)	> 100 µM (inactive)	> 100 µM (inactive)	> 100 µM (inactive)	–	–	–
O=C1CC2c3ccccc3CCC2c2ccccc21 (stereo unspecified)	31.3 µM (inactive)	1 µM (active)	28.2 µM (inactive)	33.2 µM (inactive)	14.1 µM	21.6 µM (inactive)	12.4 µM (inactive)	15.8 µM (inactive)	20.5 µM (inactive)	6.64 µM (inactive)	–	12.1 µM (inactive)	–	43.5 µM (inactive)	11.6 µM (inactive)	42.9 µM (inactive)	34.8 µM (inactive)	22.3 µM (inactive)	38.2 µM (inactive)	46.7 µM (inactive)
O=S(=O)(O)c1cc(O)c(/N=N\C2S(=O)(=O)OCCOS2(=O)=O)c2ccccc12	61.9 µM (inactive)	> 100 µM (inactive)	46 µM (inactive)	> 100 µM (inactive)	> 100 µM	22.2 µM (inactive)	> 100 µM (inactive)	61.9 µM (inactive)	> 100 µM (inactive)	> 100 µM (inactive)	> 100 µM (inactive)	> 100 µM (inactive)	> 100 µM (inactive)	> 100 µM (inactive)	> 100 µM (inactive)	> 100 µM (inactive)	71.8 µM (inactive)	23.4 µM (inactive)	25.6 µM (inactive)	–
CC1N=C(c2ccccc2)OC1=O (stereo unspecified)	> 100 µM (inactive)	> 100 µM (inactive)	> 100 µM (inactive)	> 100 µM (inactive)	> 100 µM	–	> 100 µM (inactive)	> 100 µM (inactive)	> 100 µM (inactive)	> 100 µM (inactive)	> 100 µM (inactive)	> 100 µM (inactive)	> 100 µM (inactive)	> 100 µM (inactive)	> 100 µM (inactive)	> 100 µM (inactive)	> 100 µM (inactive)	> 100 µM (inactive)	> 100 µM (inactive)	–
c1ccc(-c2cc(-c3cc(-c4ccccc4)n(-c4ccccc4)n3)nn2-c2ccccc2)cc1	78.5 µM (inactive)	> 100 µM (inactive)	> 100 µM (inactive)	> 100 µM (inactive)	> 100 µM	–	52 µM (inactive)	–	> 100 µM (inactive)	> 100 µM (inactive)	> 100 µM (inactive)	> 100 µM (inactive)	> 100 µM (inactive)	–	> 100 µM (inactive)	> 100 µM (inactive)	> 100 µM (inactive)	> 100 µM (inactive)	56.9 µM (inactive)	–
CC1=NC(=Cc2ccc(Cl)cc2)C(=O)N1n1c(-c2ccccc2)nc2ccccc2c1=O	40.6 µM (inactive)	24.6 µM (inactive)	22.2 µM (inactive)	17.8 µM (inactive)	44.4 µM	26.3 µM (inactive)	18.1 µM (inactive)	38.5 µM (inactive)	49.7 µM (inactive)	35.1 µM (inactive)	33.2 µM (inactive)	> 100 µM (inactive)	–	34.1 µM (inactive)	36.7 µM (inactive)	25.4 µM (inactive)	–	23 µM (inactive)	38.6 µM (inactive)	33.5 µM (inactive)
COC(=O)N[C@H](C(=O)O)C(C)O[Si](C)(C)C(C)(C)C (stereo partly specified)	> 100 µM (inactive)	> 100 µM (inactive)	> 100 µM (inactive)	–	> 100 µM	> 100 µM (inactive)	> 100 µM (inactive)	> 100 µM (inactive)	> 100 µM (inactive)	–	> 100 µM (inactive)	> 100 µM (inactive)	> 100 µM (inactive)	> 100 µM (inactive)	> 100 µM (inactive)	> 100 µM (inactive)	> 100 µM (inactive)	> 100 µM (inactive)	–	> 100 µM (inactive)
C[C@H]1CCC/C=C/[C@@H]2C[C@H](O)C[C@H]2[C@H](O)/C=C/C(=O)O1 [BREFELDIN A]	< 10 nM (active) and 13.2 nM (active)	< 10 nM (active) and 17.4 nM (active)	–	–	0.0692 µM and 0.043 µM	–	< 10 nM (active) and 10.1 nM (active)	13.2 nM (active) and 12.3 nM (active)	–	40.6 nM (active) and 42.4 nM (active)	18.1 nM (active) and 11.3 nM (active)	19.9 nM (active) and 25.8 nM (active)	< 14.9 nM (active) and 27.4 nM (active)	–	< 10 nM (active) and 5.83 nM (active)	124 nM (active) and 71.5 nM (active)	68.1 nM (active) and 36.7 nM (active)	–	< 10 nM (active) and 8.97 nM (active)	–
